Data on two compounds can be found in patent publication US20130324520A1, “RXRG MODULATORS FOR THE TREATMENT OF CANCER” (SLOAN-KETTERING INSTITUTE FOR CANCER RESEARCH, priority 2011, published 2013).

For experiment [1], the system named is p53-targeted genes in RB177. As to the kind of experiment: Real time PCR of p53-targeted genes. In kind it is cell-based. The method, then:
Total RNA was isolated from puromycin-selected cells using RNeasy Mini Kit (Qiagen) or GenElute™ Mammalian Total RNA Miniprep Kit (Sigma). RNA reverse transcription was performed with ImProm-II™ Reverse Transcription System (Promega). Primers were designed by Beacon Designer software (Premier Biosoft International) or web-based Primer3 (http://frodo.wi.mit.edu/primer3/). Relative mRNA levels were determined by qPCR using QuantiTect SYBR Green PCR Kit (Qiagen) or Fermentus Maxima® SYBR Green qPCR Master Mix on an Applied Biosystems ABI 7900HT Sequence Detection System. Two samples for each group were collected and evaluated in triplicate and normalized to β-actin mRNA quantitated in parallel. Program conditions: activation, 95° C. 10 min; amplification, 40 cycles (denaturation 95° C. 20 sec, annealing 54° C. 30 sec, extension 72° C. 30 sec). qPCR primers are listed in Table 7.

In experiment [2] the target is RXRG in HCT116 (Homo sapiens, UniProt P48443). How it is done: Colon cancer or lung cancer cells were passaged to dishes with coverslips, and incubated in a humidified incubator at 5% CO2 and 37° C. for 1-2 days. The medium was removed and the cells fixed in 4% PFA/PBS for 5 min, gently rinsed with 0.15 M NaCl/20 mM Tris (pH 8.0; TBS), dried, and stored at −20° C. […] After treatment of RXRG ligands or RXRG knockdown, retinoblastoma cells were spread on poly-L-lysine coated slides with medium, and incubated for 3-4 hours before fixation.
Staining with mouse antibodies: Cells were treated with 1 mM EDTA/PBS for 5 min at room temperature and, washed with PBS. […]
Co-staining analyses with other antibodies: On completing the first staining reaction as described above, cells were incubated in block 1 for 20 min, incubated overnight with primary antibody in block 1, washed in PBS, incubated for 30 min in block 1 with Cy3 or Cy5 conjugated secondary antibody, and washed in PBS. […] Mounting Media (Vector Labs), and analyzed by inverted immunofluorescent microscopy (Axioplan2 Imaging, Carl Zeiss MicroImaging, LLC).

Molecules are shown by their SMILES. Entries after “also recorded” stand apart in the source; their conditions may differ.

Chain of RXRG in HCT116 (P48443 whole entry): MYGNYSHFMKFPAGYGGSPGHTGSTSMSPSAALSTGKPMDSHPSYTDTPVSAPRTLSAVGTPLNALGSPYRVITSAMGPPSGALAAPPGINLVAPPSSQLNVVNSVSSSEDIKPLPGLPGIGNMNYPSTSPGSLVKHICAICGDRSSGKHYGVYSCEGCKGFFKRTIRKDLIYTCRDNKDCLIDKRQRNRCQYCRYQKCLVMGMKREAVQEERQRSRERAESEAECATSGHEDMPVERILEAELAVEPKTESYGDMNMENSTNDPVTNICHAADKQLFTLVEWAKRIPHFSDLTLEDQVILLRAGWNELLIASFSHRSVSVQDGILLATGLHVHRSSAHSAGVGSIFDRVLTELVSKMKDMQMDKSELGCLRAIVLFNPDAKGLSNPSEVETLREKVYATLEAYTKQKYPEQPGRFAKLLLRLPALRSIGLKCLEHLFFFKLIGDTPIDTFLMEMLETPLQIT

Take `CN1c2ccc([N+](=O)[O-])cc2N=C(c2ccc(C(=O)O)cc2)c2cc3c(cc21)C(C)(C)CCC3(C)C` [HX531]: in experiment [1], the “expression of p53-targeted genes (14-3-3, GADD45, p21, MDM2)” value is on record as “did not promote expression of these genes; also recorded: suppressed”.

For `C=C(c1ccc(C(=O)O)cc1)c1cc2c(cc1C)C(C)(C)CCC2(C)C` [Bexarotene], the RXRG localisation result in experiment [2] was “RXRG cluster formation and nucleolar translocation”.
